Test results reported in patent publication US20260274859A1, “FUSED POLYCYCLIC DERIVATIVE AND USE THEREOF” (ZHEJIANG HISUN PHARMACEUTICAL CO., LTD., priority 2023, published 2026).
pIC50: −log10 of the molar value.

Columns and labels:
Type in all cases: cell-based
A549 cells = assay: Inhibition of proliferation of A549 cells (CCK8 or CTG); settings: Homo sapiens, maximum concentration 10 μM, 5-fold dilution
Protocol: (1) A549 cells in the logarithmic growth phase were digested with 0.25% trypsin and counted. The cells were inoculated into 96-well plates at 2000 cells per well, and the 96-well plates were placed in an incubator containing 5% CO2 at 37° C. for 12 h of culture.
(§1) (2) Six concentration gradients for the compounds to be tested (with the maximum drug concentration of 10 μM and 5-fold dilution) were set. After the cells adhered to the wall, the compounds to be tested were serially diluted with DMSO, then diluted with 1640 complete medium to reach a concentration 1000 times the final concentration, and added to the corresponding wells.
(§2) (3) After the corresponding concentrations of the compounds to be tested were added, the plates were incubated in an incubator with 5% carbon dioxide at 37° C., and then the cell viability rate at each drug concentration was determined by CCK8 or CTG method. In addition, the IC50 value was calculated.

HL60 cells = assay: Inhibition of proliferation of HL60 tumor cells (CCK8 or CTG); settings: Homo sapiens, HL-60
Protocol: The effect of the compound of the present disclosure on the proliferation of tumor cells was determined using the following method. The HL60 cells used in the method were purchased from Nanjing Kebai Biotechnology Co., Ltd., and the kit was the Cell Counting Kit-8/CCK-8 kit of MCE Company (article number: HY—K0301, specification: 3000T).
(1) HL60 cells in logarithmic growth phase were prepared into a cell suspension. The cell suspension was added into a 96-well plate at 5000 cells/well. The 96-well cell culture plate was placed in a CO2 incubator for 4 h of incubation of suspended cells or for 12 h of incubation of adherent cells.
(2) The compounds to be tested were diluted with IMDM complete culture medium to reach a concentration twice the testing concentration, and added to the corresponding wells.
as §2

HK-2 cells = assay: Inhibition of proliferation of HK-2 cells (normal cells; CCK8 or CTG); settings: Homo sapiens, maximum concentration 10 μM, 5-fold dilution
Protocol: (1) HK-2 cells in the logarithmic growth phase were digested with 0.25% trypsin and counted. The cells were inoculated into 96-well plates at 2000 cells per well, and the 96-well plates were placed and cultured in an incubator containing 5% CO2 at 37° C. for 12 h.
as §1, with “for the compound to be” for “for the compounds to be”
as §2

Row | pIC50 (A549 cells) | pIC50 (HL60 cells) | Compound | pIC50 (HK-2 cells)
1 | 7.74 | > 6.82 | CC(C)NC1CC(C(=O)Nc2sc3c(c2-c2nc4ccc(-c5ccc(C6=CCNCC6)nc5)cc4s2)CCNC3)C1 (stereo not drawn) [Compound 047, 3-(isopropylamino)-N-(3-(6-(1′,2′,3′,6′-tetrahydro-[2, 4′-bipyridin]-5-yl)benzo [d]thiazol-2-yl)-4,5,6,7-tetrahydrothieno[2,3-c]pyridin-2-yl)cyclobutane-1-carboxamide] | 5.79
2 | – | > 6.82 | COCCNC1CC(C(=O)Nc2sc3c(c2-c2nc4ccc(C5=CCNCC5)cc4s2)CCNC3)C1 (stereo not drawn) [Compound 119, 3-((2-methoxyethyl)amino)-N-(3-(6-(1,2,3,6-tetrahydropyridin-4-yl)benzo [d]thiazol-2-yl)-4,5,6,7-tetrahydrothieno[2,3-c]pyridin-2-yl)cyclobutane-1-carboxamide] | –
3 | – | > 6.82 | CC(C)NC1CC(C(=O)Nc2sc3c(c2-c2nc4cc(C5=CCNCC5)ccc4s2)CCNC3)C1 (stereo not drawn) [Compound 022, 3-(isopropylamino)-N-(3-(5-(1,2,3,6-tetrahydropyridin-4-yl)benzo[d]thiazol-2-yl)-4,5,6,7-tetrahydrothieno [2,3-c]pyridin-2-yl) cyclobutane-1-carboxamide] | –
4 | 8.56 | > 6.82 | CC(C)(C)NC1CC(C(=O)Nc2sc3c(c2-c2nc4ccc(C5=CCNCC5)cc4s2)CCNC3)C1 (stereo not drawn) [Compound 120, 3-(tert-butylamino)-N-(3-(6-(1,2,3,6-tetrahydropyridin-4-yl)benzo[d]thiazol-2-yl)-4,5,6,7-tetrahydrothieno [2,3-c]pyridin-2-yl) cyclobutane-1-carboxamide] | 6.12
5 | 9.28 | > 6.82 | CC(C)NC1CC(C(=O)Nc2sc3c(c2-c2nc4ccc(-c5ccc(N6CCNCC6)nc5)cc4s2)CCNC3)C1 (stereo not drawn) [Compound 009, 3-(isopropylamino)-N-(3-(6-(6-(piperazin-1-yl)pyridin-3-yl)benzo[d]thiazol-2-yl)-4,5,6,7-tetrahydrothieno [2,3-c]pyridin-2-yl) cyclobutane-1-carboxamide] | –
6 | 7.66 | – | CC(C)NC1CC(C(=O)Nc2sc3c(c2-c2nc4ccc(C5=CCNCC5)cc4s2)CCN(C2CCCC2)C3)C1 (stereo not drawn) [Compound 054, N-(6-cyclopentyl-3-(6-(1,2,3,6-tetrahydropyridin-4-yl)benzo[d]thiazol-2-yl)-4,5,6,7-tetrahydrothieno[2,3-c]pyridin-2-yl)-3-(isopropylamino)cyclobutane-1-carboxamide] | –
7 | 8.36 | > 6.82 | CC(C)NC1CC(C(=O)Nc2sc3c(c2-c2nc4ccc(C5=CCN(C)CC5)cc4s2)CCNC3)C1 (stereo not drawn) [Compound 017, 3-(isopropylamino)-N-(3-(6-(1-methyl-1,2,3,6-tetrahydropyridin-4-yl)benzo[d]thiazol-2-yl)-4,5,6,7-tetrahydrothieno[2,3-c]pyridin-2-yl)cyclobutane-1-carboxamide] | –
8 | 9.31 | – | CC(C)NC1CC(C(=O)Nc2sc3c(c2-c2nc4ccccc4s2)CCNC3)C1 (stereo not drawn) [Compound 001, N-(3-(benzo[d]thiazol-2-yl)-4,5,6,7-tetrahydrothieno[2,3-c]pyridin-2-yl)-3-(isopropylamino)cyclobutane-1-carboxamide] | 6.12
9 | 8.47 | > 6.82 | CC(C)NC1CC(C(=O)Nc2sc3c(c2-c2nc4ccc(C5=CCNCC5)cc4s2)CCNC3)C1 (stereo not drawn) [Compound 048, 3-(isopropylamino)-N-(3-(6-(1,2,3,6-tetrahydropyridin-4-yl)benzo[d]thiazol-2-yl)-4,5,6,7-tetrahydrothieno[2,3-c]pyridin-2-yl)cyclobutane-1-formylamino] | 5.93
10 | 8.13 | – | CC(C)NC1CCC(C(=O)Nc2sc3c(c2-c2nc4ccc(C5=CCNCC5)cc4s2)CCNC3)CC1 (stereo not drawn) [Compound 124, 4-(isopropylamino)-N-(3-(6-(1,2,3,6-tetrahydropyridin-4-yl)benzo[d]thiazol-2-yl)-4,5,6,7-tetrahydrothieno [2,3-c]pyridin-2-yl) cyclohexane-1-carboxamide] | 5.49
11 | – | > 6.82 | Cc1cn(-c2ccc3nc(-c4c(NC(=O)C5CC(NC(C)C)C5)sc5c4CCNC5)sc3c2)cn1 (stereo not drawn) [Compound 014, 3-(isopropylamino)-N-(3-(6-(4-methyl-1H-imidazol-1-yl)benzo[d]thiazol-2-yl)-4,5,6,7-tetrahydrothieno[2,3-c]pyridin-2-yl)cyclobutane-1-carboxamide] | –

The remaining lines, values behind:

Row | Compound | pIC50 (A549 cells) | pIC50 (HL60 cells) | pIC50 (HK-2 cells)
12 | CC(=O)NC1CC(C(=O)Nc2sc3c(c2-c2nc4ccc(C5=CCN(C(C)=O)CC5)cc4s2)CCNC3)C1 (stereo not drawn) [Compound 141] | – | – | 5.84
13 | CC(C)NCCNC(=O)Nc1sc2c(c1-c1nc3ccccc3s1)CCNC2 [Compound 077, 1-(3-(benzo[d]thiazol-2-yl)-4,5,6,7-tetrahydrothieno[2,3-c]pyridin-2-yl)-3-(2-(isopropylamino)ethyl) urea] | 7.36 | > 6.82 | 5.90
14 | CC(=O)N1CCc2c(sc(NC(=O)C3CC(NC(C)C)C3)c2-c2nc3ccc(-c4ccc(N5CCNCC5)nc4)cc3s2)C1 (stereo not drawn) [Compound 122, N-(6-acetyl-3-(6-(6-(piperazin-1-yl)pyridin-3-yl)benzo[d]thiazol-2-yl)-4,5,6,7-tetrahydrothieno[2,3-c]pyridin-2-yl)-3-(isopropylamino)cyclobutane-1-carboxamide] | – | – | 5.98
15 | CN1CCN(c2sc3c(c2-c2nc4ccc(-c5ccc(N6CCNCC6)nc5)cc4s2)CCNC3)CC1 [Compound 126, 2-(2-(4-methylpiperazin-1-yl)-4,5,6,7-tetrahydrothieno [2,3-c]pyridin-3-yl)-6-(6-(piperazin-1-yl)pyridin-3-yl)benzo[d]thiazole] | – | – | 5.93
16 | CNCCNC(=O)C(=O)Nc1sc2c(c1-c1nc3ccc(C4=CCNCC4)cc3s1)CCNC2 [Compound 125, N^1-(2-(methylamino)ethyl)-N^2-(3-(6-(1,2,3,6-tetrahydropyridin-4-yl)benzo [d]thiazol-2-yl)-4,5,6,7-tetrahydrothieno[2,3-c]pyridin-2-yl)oxalamide] | 7.19 | – | 4.95
17 | CC(C)NC1CC(C(=O)N(C)c2sc3c(c2-c2nc4ccc(-c5ccc(N6CCNCC6)nc5)cc4s2)CCNC3)C1 (stereo not drawn) [Compound 134, 3-(isopropylamino)-N-methyl-N-(3-(6-(6-(piperazin-1-yl)pyridin-3-yl)benzo [d]thiazol-2-yl)-4,5,6,7-tetrahydrothieno[2,3-c]pyridin-2-yl)cyclobutane-1-carboxamide] | 9.18 | – | –
18 | CC(C)NCCC(=O)Nc1sc2c(c1-c1nc(-c3ccccc3)cs1)CCNC2 [Compound b, reference compound] | 7.01 | – | 6.62
19 | CC(C)NC1CCC(C(=O)Nc2sc3c(c2-c2nc4ccc(-c5ccc(N6CCNCC6)nc5)cc4s2)CCNC3)C1 (stereo not drawn) [Compound 060, 3-(isopropylamino)-N-(3-(6-(6-(piperazin-1-yl)pyridin-3-yl)benzo[d]thiazol-2-yl)-4,5,6,7-tetrahydrothieno [2,3-c]pyridin-2-yl) cyclopentane-1-carboxamide] | 7.78 | – | 5.96
20 | CC(C)NCCCNc1sc2c(c1-c1nc3ccc(-c4ccc(N5CCNCC5)nc4)cc3s1)CCNC2 [Compound 082, N^1-isopropyl-N^3-(3-(6-(6-(piperazin-1-yl)pyridin-3-yl)benzo[d]thiazol-2-yl)-4,5,6,7-tetrahydrothieno[2,3-c]pyridin-2-yl) propane-1,3-diamine] | – | – | 5.35
21 | COCCNCCC(=O)Nc1sc2c(c1-c1nc3cc(-n4cnc(C)c4)ccc3s1)CCNC2 [Compound a, reference compound] | 7.13 | 5.82 to 6.82 | 6.28
22 | CC(C)NC1CCC(C(=O)Nc2sc3c(c2-c2nc4ccc(Br)cc4s2)CCNC3)CC1 (stereo not drawn) [Compound 123, N-(3-(6-bromobenzo[d]thiazol-2-yl)-4,5,6,7-tetrahydrothieno[2,3-c]pyridin-2-yl)-4-(isopropylamino) cyclohexane-1-carboxamide] | – | – | 6.03
23 | CN(C)CCNC(=O)CNc1sc2c(c1-c1nc3ccccc3s1)CCNC2 [Compound 086, 2-((3-(benzo[d]thiazol-2-yl)-4,5,6,7-tetrahydrothieno [2,3-c]pyridin-2-yl)amino)-N-(2-(dimethylamino)ethyl)acetamide] | – | – | 5.12
24 | Cc1cn(-c2ccc3sc(-c4c(NC(=O)C5CC(NC(C)C)C5)sc5c4CCNC5)nc3c2)cn1 (stereo not drawn) [Compound 121, 3-(isopropylamino)-N-(3-(5-(4-methyl-1H-imidazol-1-yl)benzo[d]thiazol-2-yl)-4,5,6,7-tetrahydrothieno [2,3-c]pyridin-2-yl) cyclobutane-1-carboxamide] | – | > 6.82 | 6.14
